We go through 19 compounds from PubChem BioAssay AID192 (DTP/NCI, 2004).

“And” between values parts separate entries of the source, which are not always exact repeats. Equal entries are not always repeated. Inconclusive results and toxic doses are left out.

For the assay, the system named is BDF1 mice, B16 melanoma ip, median survival T/C. As to the kind of experiment: NCI In Vivo Anticancer Drug Screen. Data for tumor model B16 Melanoma (intraperitoneal) in B6D2F1 (BDF1) mice. The conditions noted are these: endpoint: median survival time, higher = longer survival. The method, boiled down: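 Vehicle-treated animals serve as the reference (C); treated animals (T) are scored for survival or tumor size after tumor transplantation.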

Where [1] appears, read: dose: 25.0 mg/kg/injection, schedule: Q01DX009 (ip), vehicle: Klucel (hydroxypropylcellulose) (HPC).
[2] abbreviates: dose: 50.0 mg/kg/injection, schedule: Q01DX009 (ip), vehicle: Klucel (hydroxypropylcellulose) (HPC).
Setting [3] is: dose: 100.0 mg/kg/injection, schedule: Q01DX009 (ip), vehicle: Klucel (hydroxypropylcellulose) (HPC).
Where [4] appears, read: dose: 200.0 mg/kg/injection, schedule: Q01DX009 (ip), vehicle: Klucel (hydroxypropylcellulose) (HPC).
Where [5] appears, read: dose: 12.5 mg/kg/injection, schedule: Q01DX009 (ip), vehicle: Klucel (hydroxypropylcellulose) (HPC).
Where [6] appears, read: dose: 50.0 mg/kg/injection, schedule: Q01DX009 (ip), vehicle: saline with Tween-80.
[7] abbreviates: dose: 0.37 mg/kg/injection, schedule: Q01DX009 (ip), vehicle: Klucel (hydroxypropylcellulose) (HPC).
Setting [8] is: dose: 0.75 mg/kg/injection, schedule: Q01DX009 (ip), vehicle: Klucel (hydroxypropylcellulose) (HPC).
The mark [9] stands for this setting: dose: 100.0 mg/kg/injection, schedule: Q01DX009 (ip), vehicle: saline with Tween-80.
Setting [10] is: dose: 200.0 mg/kg/injection, schedule: Q01DX009 (ip), vehicle: saline with Tween-80.
The mark [11] stands for this setting: dose: 25.0 mg/kg/injection, schedule: Q01DX009 (ip), vehicle: saline.

Regarding `Cc1ccc(N=CN(C)Sc2ccc(C(C)(C)C)cc2)c(C)c1`, the T/C was 100 % of control under setting [1], 98 % of control under setting [2], 95 % of control under setting [3] and 94 % of control under setting [4].

With `O=C1CCCC(=O)C1C(C[N+](=O)[O-])c1ccccc1` (configuration not stated), the T/C runs as follows: under setting [5], 86 % of control; under setting [1], 94 % of control; under setting [2], 107 % of control; under setting [3], 107 % of control.

For the compound `Cc1cccc(C)c1C1=NCCN1`, the T/C is 95 % of control (dose: 12.5 mg/kg/injection, schedule: Q01DX009 (ip), vehicle: saline with Tween-80); 95 % of control (dose: 25.0 mg/kg/injection, schedule: Q01DX009 (ip), vehicle: saline with Tween-80); 93 % of control under setting [6].

Take `Cc1cc2nc3ccc(N)cc3oc-2cc1=[N+](C)C`: the T/C (dose: 6.25 mg/kg/injection, schedule: Q01DX009 (ip), vehicle: Klucel (hydroxypropylcellulose) (HPC)) is 105 % of control; the T/C (dose: 6.25 mg/kg/injection, schedule: Q01DX009 (ip), vehicle: saline) was 123 % of control; the T/C under setting [5] is 110 % of control; the T/C (dose: 12.5 mg/kg/injection, schedule: Q01DX009 (ip), vehicle: saline) is 119 % of control; the T/C under setting [1] is 117 % of control.

As for `COC(=O)c1cc([N+](=O)[O-])cc([N+](=O)[O-])c1Br`, the T/C under setting [7] was 95 % of control; the T/C under setting [8] is 101 % of control; the T/C (dose: 1.5 mg/kg/injection, schedule: Q01DX009 (ip), vehicle: Klucel (hydroxypropylcellulose) (HPC)) was 88 % of control.

Turning to `COc1ccc(Nc2ccnc3cc(Cl)ccc23)cc1CN(CCCl)CCCl`, the T/C (dose: 1.25 mg/kg/injection, schedule: Q01DX009 (ip), vehicle: Klucel (hydroxypropylcellulose) (HPC)) was 118 % of control and the T/C (dose: 2.5 mg/kg/injection, schedule: Q01DX009 (ip), vehicle: Klucel (hydroxypropylcellulose) (HPC)) is 94 % of control.

With `CNC(=O)Nc1nc2ccc([N+](=O)[O-])cc2[nH]1`, the T/C (dose: 50.0 mg/kg/injection, schedule: Q01DX009 (ip), vehicle: suspension in saline) is 101 % of control; the T/C (dose: 100.0 mg/kg/injection, schedule: Q01DX009 (ip), vehicle: suspension in saline) is 91 % of control; the T/C (dose: 200.0 mg/kg/injection, schedule: Q01DX009 (ip), vehicle: suspension in saline) was 90 % of control; the T/C (dose: 400.0 mg/kg/injection, schedule: Q01DX009 (ip), vehicle: suspension in saline) was 91 % of control.

As for `Clc1ccc(Cl)c(NNc2cc(Cl)ccc2Cl)c1`, the T/C is 101 % of control under setting [1], 95 % of control under setting [2] and 101 % of control under setting [3].

Turning to `Nc1ncn(C2CC(O)C(CO)O2)c(=O)n1` (configuration not stated), the T/C was 98 % of control (dose: 0.01 mg/kg/injection, schedule: Q01DX009 (ip), vehicle: Klucel (hydroxypropylcellulose) (HPC)); 109 % of control (dose: 0.03 mg/kg/injection, schedule: Q01DX009 (ip), vehicle: Klucel (hydroxypropylcellulose) (HPC)); 99 % of control (dose: 0.05 mg/kg/injection, schedule: Q01DX009 (ip), vehicle: Klucel (hydroxypropylcellulose) (HPC)); 98 % of control (dose: 0.06 mg/kg/injection, schedule: Q01DX009 (ip), vehicle: Klucel (hydroxypropylcellulose) (HPC)); 100 % of control (dose: 0.1 mg/kg/injection, schedule: Q01DX009 (ip), vehicle: Klucel (hydroxypropylcellulose) (HPC)); 105 % of control (dose: 0.12 mg/kg/injection, schedule: Q01DX009 (ip), vehicle: Klucel (hydroxypropylcellulose) (HPC)). Further, the T/C by setting is: (dose: 0.2 mg/kg/injection, schedule: Q01DX009 (ip), vehicle: Klucel (hydroxypropylcellulose) (HPC)) 100 % of control; (dose: 0.25 mg/kg/injection, schedule: Q01DX009 (ip), vehicle: Klucel (hydroxypropylcellulose) (HPC)) 102 % of control; (dose: 0.4 mg/kg/injection, schedule: Q01DX009 (ip), vehicle: Klucel (hydroxypropylcellulose) (HPC)) 105 % of control; (dose: 0.5 mg/kg/injection, schedule: Q01DX009 (ip), vehicle: Klucel (hydroxypropylcellulose) (HPC)) 104 % of control; (dose: 0.8 mg/kg/injection, schedule: Q01DX009 (ip), vehicle: Klucel (hydroxypropylcellulose) (HPC)) 122 % of control.

Take `Cc1ccc([I+]c2ccc(C)cc2C)c(C)c1`: the T/C reads like this: (dose: 0.18 mg/kg/injection, schedule: Q01DX009 (ip), vehicle: Klucel (hydroxypropylcellulose) (HPC)) 114 % of control; under setting [7], 92 % of control; under setting [8], 87 % of control; (dose: 6.0 mg/kg/injection, schedule: Q01DX009 (ip), vehicle: Klucel (hydroxypropylcellulose) (HPC)) 90 % of control.

Regarding `Nc1cc(N)cc(C(=O)c2ccccc2)c1`, the T/C reads like this: under setting [9], 93 % of control; under setting [10], 97 % of control; (dose: 400.0 mg/kg/injection, schedule: Q01DX009 (ip), vehicle: saline with Tween-80) 93 % of control.

Consider `COc1cccc2c1C(=O)c1c(O)c3c(c(O)c1C2=O)C[C@@](O)(C(=O)CO)C[C@@H]3OC1CC(NC=O)C(O)C(C)O1` (some centres not stated), for which the T/C (dose: 1.56 mg/kg/injection, schedule: Q01DX009 (ip), vehicle: other) is 118 % of control; the T/C (dose: 6.25 mg/kg/injection, schedule: Q01DX009 (ip), vehicle: other) was 185 % of control; the T/C (dose: 12.5 mg/kg/injection, schedule: Q01DX009 (ip), vehicle: other) is 171 % of control and 203 % of control; the T/C (dose: 25.0 mg/kg/injection, schedule: Q01DX009 (ip), vehicle: other) was 194 % of control; the T/C (dose: 50.0 mg/kg/injection, schedule: Q01DX009 (ip), vehicle: other) is 198 % of control and 259 % of control; the T/C (dose: 100.0 mg/kg/injection, schedule: Q01DX009 (ip), vehicle: other) is 259 % of control.

For the compound `C=CCc1ccccc1OC`, the T/C by setting is: under setting [11], 116 % of control; (dose: 50.0 mg/kg/injection, schedule: Q01DX009 (ip), vehicle: saline) 109 % of control; (dose: 100.0 mg/kg/injection, schedule: Q01DX009 (ip), vehicle: saline) 106 % of control.

On to `CN1CCC(C=C2c3ccccc3CCc3ccccc32)C1` (configuration not stated), for which the T/C runs as follows: (dose: 1.56 mg/kg/injection, schedule: Q01DX009 (ip), vehicle: saline) 102 % of control; (dose: 3.12 mg/kg/injection, schedule: Q01DX009 (ip), vehicle: saline) 100 % of control; under setting [11], 102 % of control.

Consider `Cc1c(Cl)cccc1NC(=O)c1ccc([N+](=O)[O-])cc1`, for which the T/C under setting [9] is 105 % of control and the T/C under setting [10] was 100 % of control.

Regarding `COc1ccc(C=Nc2ccc(Cl)cc2)cc1`, the T/C under setting [2] is 104 % of control, the T/C under setting [3] is 103 % of control and the T/C under setting [4] was 106 % of control.

`C=C1C(=O)O[C@@H]2C[C@@H](C)[C@@H]3C=CC(=O)[C@@]3(C)[C@@H](O)[C@H]12`: the T/C is 120 % of control (dose: 2.0 mg/kg/injection, schedule: Q01DX009 (ip), vehicle: saline + alcohol); 104 % of control (dose: 2.0 mg/kg/injection, schedule: Q01DX009 (ip), vehicle: saline); 115 % of control (dose: 4.0 mg/kg/injection, schedule: Q01DX009 (ip), vehicle: saline + alcohol); 95 % of control (dose: 4.0 mg/kg/injection, schedule: Q01DX009 (ip), vehicle: saline); 115 % of control (dose: 8.0 mg/kg/injection, schedule: Q01DX009 (ip), vehicle: saline + alcohol); 105 % of control (dose: 8.0 mg/kg/injection, schedule: Q01DX009 (ip), vehicle: saline).

Regarding `O=[N+]([O-])c1cccc(S(=O)(=O)N2CCN(S(=O)(=O)c3cccc([N+](=O)[O-])c3)C2)c1`, the T/C is 109 % of control (dose: 100.0 mg/kg/injection, schedule: Q04DX003 (ip), vehicle: Klucel (hydroxypropylcellulose) (HPC)); 102 % of control (dose: 200.0 mg/kg/injection, schedule: Q04DX003 (ip), vehicle: Klucel (hydroxypropylcellulose) (HPC)); 94 % of control (dose: 400.0 mg/kg/injection, schedule: Q04DX003 (ip), vehicle: Klucel (hydroxypropylcellulose) (HPC)).

For `CCNc1nc(NCC)nc(OC)n1`, the T/C under setting [6] was 117 % of control; the T/C (dose: 66.0 mg/kg/injection, schedule: Q01DX009 (ip), vehicle: saline with Tween-80) was 93 % of control; the T/C under setting [9] was 95 % of control; the T/C (dose: 150.0 mg/kg/injection, schedule: Q01DX009 (ip), vehicle: saline with Tween-80) is 93 % of control; the T/C under setting [10] was 105 % of control.
